Where two headings read alike, the source gives them in different places.

The results in this text go back to patent US20100056623A1, “FUMAGILLOL DERIVATIVES OR METHOD FOR PREPARATION OF FUMAGILLOL DERIVATIVES, AND PHARMACEUTICAL COMPOSITIONS COMPRISING THE SAME” (CHONG KUN DANG PHARMACEUTICAL CORP., priority 2005, published 2010).

One data set concerns L5178Y lymphoma. As to the kind of experiment: Inhibiting activity on cell proliferation, MTT analysis (L5178Y). It counts as cell-based, murine. The following applies: L5178Y lymphoma cells, 3 days with drug. The method, then:
(§1) In order to compare the safety index (SI) of CPAE (calf pulmonary artery endothelial cell) with that of HUVEC (human umbilical vein endothelial cell), L5178Y lymphoma that was isolated from murine thymus was used. The safety index was defined as IC50 ratio of L5178Y against CPAE (IC50L5178Y/IC50CPAE). All cell lines, which had been kept in liquid nitrogen tank, were used after being thawed and subcultured 2˜3 times in T-flask. CPAE, HUVEC and L5178Y were cultured in MEM culture medium (20% FBS, 50˜100 μg/ml ECGS, 0.15% baking soda, 0.05 mg/ml gentamicin), M199 culture medium (20% FBS, 0.22% baking soda, 100 μg/ml heparin, 3 ng/ml bFGF, 0.05 mg/ml gentamicin) and RPMI 1640 culture medium (10% FBS, 0.2% baking soda, 0.05 mg/ml gentamicin), respectively, under the condition of 37° C. and 5% CO2.
(§2) The drug was prepared by being gradationally diluted to two or ten times by using PBS, 20 μl of the solution was added to each well of 96 well plate in triplicate. The cell, which is being incubated, was treated with trypsin to give cell suspension. The number of cell thereafter was counted. And 180 μl of the solution was inoculated to each well and cultured.
The tumor cell was cultured with drugs for 3 days and then 50 μl of MTT (3-(4,5-dimethylthiazole-2-yl)-2,5-diphenyl tetrazolium bromide, Sigma Chemical Co.) solution (2.5 mg/ml in PBS) was added thereto. And it was further cultured for 4 hours at 37° C. Culture medium was removed carefully. And after dissolving formazan crystal by adding 150 μl of DMSO, the absorbance at 570 nm was determined.

Data set [1] concerns CPAE (calf pulmonary artery endothelial cell). Description: Inhibiting activity on cell proliferation, SRB analysis (CPAE). The data set is classed as cell-based. As to conditions: for IC50: CPAE cells, 3 days with drug, SRB, read-out: IC50 (nM) CAPE; for Selectivity Index (L5178Y/CAPE): IC50 L5178Y / IC50 CPAE. The protocol: as §1, §2
The cell was cultured with drugs for 3 days and then 50 μl of 50% TCA was added thereto (final concentration 10%). Subsequently the cell was fixed by being left alone at 4° C. for 1 hour. The well was washed 4 times by distilled water and then dried. After that 100 μl of SRB (Sulforhodamine B, Sigma Chemical Co.) solution (0.4% w/v in 1% acetic acid) was added thereto and then it was left alone at ordinary temperature for 30 minutes. Thereafter the well was washed 4 times by 1% acetic acid and dried. And then after adding 200 μl of 10 mM tris buffer, the absorbance at 570 nm was measured by automatic microplate reader (Model: Elx 808, Bio-Tek Instrument, INC). The viability was calculated from the ratio of the absorbance of the control to which drugs were not added and the well to which drugs were added.

A short description of another data set: Solubility test. As to conditions: ordinary temperature. The data set is classed as physicochemical. The method, then: To a constant amount (400 mg) of each compounds of present invention, a constant amount of demineralized water, methanol and ethanol were added separately, and the solution was stirred at ordinary temperature.
A short description of data set [2]: Chemical stability test (HPLC purity). As to conditions: for 1 month Other peaks (%) / 1 month Parent peak (%) / Initial Other peaks (%) / Initial Parent peak (%): HPLC; for 1 month Other peaks (%) / 1 month Parent peak (%) / change of purity (in words) / chemical stability compared to known compounds: 1 month at 40±2° C.; for 1 month Other peaks (%) / 1 month Parent peak (%) / change of purity (%) / change of purity (in words) / chemical stability compared to known compounds: 75±5% relative humidity; for 1 month Other peaks (%) / 1 month Parent peak (%): air-tight vessel; for change of purity (%): initial vs 1 month at 40±2° C.
Experimental: Each compound of the present invention was kept in an air-tight vessel for 1 month at 40±2° C. and 75±5% of relative humidity. Thereafter the HPLC purity test was executed.
25 mL of the solution was precisely taken, and poured into 100 mL volumetric flask. Acetonitrile/20 mM ammonium acetate aqueous solution (50:50) was added thereto to be the total volume of 100 ml. The solution was filtrated, and the filtrate was used as a test liquid.
(2) Operational Condition of Instrument. • Column: Kromasil®C18 (UG 100 Å, 5 μm, 4.6 mm Φ×250 mm) • Column temperature: 30° C. • Mobil phase: 20 mM ammonium acetate (pH 4.2) buffer:acetonitrile (55:45) • Injection volume: 20 μL • Flow rate: 1.2 mL/min • Detector: UV light-absorption Spectrophotometer (detection wavelength: 306 nm)

The mark [3] stands for this setting: Bos taurus, Endothelial cell, 72 h.

Turning to `CO[C@@H]1[C@H](OC(=O)/C=C/c2ccc(OCCCO)cc2)CC[C@]2(CO2)[C@H]1[C@@]1(C)O[C@@H]1CC=C(C)C` [Example 19, O-(4-(3-hydroxypropoxy)cinnamoyl)fumagillol], the IC50 with L5178Y lymphoma (Mus musculus, 72 h) stood at 24900 nM; in data set [1] (setting [3]), 0.017 nM. The “Selectivity Index (L5178Y/CAPE)” value in data set [1] is given as 1.46 × 10^6.

For the compound `COc1cc(C=CC(=O)OC2CCC3(CO3)C(C3(C)OC3CC=C(C)C)C2OC)cc(OC)c1OC` (stereo not drawn) [CKD-731, O-(3,4,5-trimethoxycinnamoyl)fumagillol, reference compound], the IC50 with L5178Y lymphoma turned out to be 58200 nM. In addition, in “Solubility test”, the “The amount of solvent to dissolve 1 g of the compounds (ml), demineralized water” value (shortened to “The amount of solvent … demineralized water”) worked out at 1567 mL; the “The amount of solvent to dissolve 1 g of the compounds (ml), ethanol” value (shortened to “The amount of solvent … (ml), ethanol”) amounted to 372 mL; the “The amount of solvent to dissolve 1 g of the compounds (ml), methanol” value (“The amount of solvent to dissolve 1 g … methanol” for short) turned out to be 350 mL. Further, in data set [2], the “1 month Other peaks (%)” value was found to be 2.9%, the “1 month Parent peak (%)” value is reported as 97.1%, the “Initial Other peaks (%)” value came to 1.1% and the “Initial Parent peak (%)” value amounted to 98.9%. For the same compound, the “change of purity (%)” value in data set [2] is 1.8%. The IC50 in data set [1] was 0.0044 nM.

With `COc1ccc(/C=C/C(=O)O[C@@H]2CC[C@]3(CO3)[C@@H]([C@@]3(C)O[C@@H]3CC=C(C)C)[C@@H]2OC)cc1OCCOCCO` [Example 15, O-(3-(2-hydroxyethoxyethoxy)-4-methoxycinnamoyl)fumagillol], the IC50 is 41900 nM in the data set with L5178Y lymphoma (Mus musculus, 72 h) and 0.4 nM in data set [1] (setting [3]). Also, in data set [1], the “Selectivity Index (L5178Y/CAPE)” value was 1.05 × 10^5.

For the compound `CO[C@@H]1[C@H](OC(=O)/C=C/c2ccc(OCCOCCO)cc2)CC[C@]2(CO2)[C@H]1[C@@]1(C)O[C@@H]1CC=C(C)C` [Example 12, O-(4-(2-hydroxyethoxyethoxy)cinnamoyl)fumagillol], it took 20500 nM to reach half-maximal inhibition with L5178Y lymphoma (Mus musculus, 72 h) (IC50). Besides, in the data set “Solubility test”, the “The amount of solvent … demineralized water” value came out at 126 mL; the “The amount of solvent … (ml), ethanol” value stood at 51 mL; the “The amount of solvent to dissolve 1 g … methanol” value was 35 mL. Also, in data set [2], the “change of purity (in words)” value is “hardly showed a change of purity”; the “chemical stability compared to known compounds” value was “more excellent chemical stability than TNP-470, CKD-732 and CKD-731”; the “1 month Other peaks (%)” value was found to be 0.6%; the “1 month Parent peak (%)” value came to 99.4%. Further, in data set [2], the “Initial Other peaks (%)” value was 0.5%, the “Initial Parent peak (%)” value is reported as 99.5% and the “change of purity (%)” value turned out to be 0.1%. Besides, the IC50 in data set [1] (setting [3]) turned out to be 0.019 nM. In data set [1], the “Selectivity Index (L5178Y/CAPE)” value is given as 1.08 × 10^6.

The compound `CO[C@@H]1[C@H](OC(=O)/C=C/c2ccc(OCCO)cc2)CC[C@]2(CO2)[C@H]1[C@@]1(C)O[C@@H]1CC=C(C)C` [Example 1, O-(4-(2-hydroxyethoxy)cinnamoyl)fumagillol] yielded an IC50 in the data set with L5178Y lymphoma (Mus musculus, 72 h) of 15500 nM. Also, in the data set “Solubility test”, the “The amount of solvent … demineralized water” value turned out to be 135 mL; the “The amount of solvent … (ml), ethanol” value turned out to be 55 mL; the “The amount of solvent to dissolve 1 g … methanol” value amounted to 34 mL. For the same compound, in data set [2], the “change of purity (in words)” value is “hardly showed a change of purity”; the “chemical stability compared to known compounds” value is “more excellent chemical stability than TNP-470, CKD-732 and CKD-731”; the “1 month Other peaks (%)” value was 0.6%; the “1 month Parent peak (%)” value was 99.4%. In data set [2], the “Initial Other peaks (%)” value came out at 0.6%, the “Initial Parent peak (%)” value was 99.4% and the “change of purity (%)” value stood at 0%. Further, in data set [1] (setting [3]), the IC50 was 0.0025 nM. Further, in data set [1], the “Selectivity Index (L5178Y/CAPE)” value was 6.22 × 10^6. Besides, the “effect compared to CKD-731 against CPAE” value in data set [1] (relative to CKD-731) is given as “equivalent or not smaller than twice effect of CKD-731”.

For `COc1cc(/C=C/C(=O)O[C@@H]2CC[C@]3(CO3)[C@@H]([C@@]3(C)O[C@@H]3CC=C(C)C)[C@@H]2OC)ccc1OCCOCCO` [Example 14, O-(4-(2-hydroxyethoxyethoxy)-3-methoxycinnamoyl)fumagillol], the IC50 in the data set on L5178Y lymphoma (Mus musculus, 72 h) is 50100 nM; in data set [1] (setting [3]), 0.26 nM. The “Selectivity Index (L5178Y/CAPE)” value in data set [1] is listed as 1.93 × 10^5.

`CO[C@@H]1[C@H](OC(=O)/C=C/c2ccc(OCCOCCOCCO)cc2)CC[C@]2(CO2)[C@H]1[C@@]1(C)O[C@@H]1CC=C(C)C` [Example 27, O-(4-(2-hydroxyethoxyethoxyethoxy)cinnamoyl)fumagillol]: 10500 nM corresponded to half-maximal inhibition with L5178Y lymphoma (Mus musculus, 72 h) (IC50). In “Solubility test”, the “The amount of solvent … demineralized water” value amounted to 120 mL; the “The amount of solvent … (ml), ethanol” value stood at 50 mL; the “The amount of solvent to dissolve 1 g … methanol” value came out at 30 mL. In data set [2], the “change of purity (in words)” value was “hardly showed a change of purity”; the “chemical stability compared to known compounds” value is “more excellent chemical stability than TNP-470, CKD-732 and CKD-731”; the “1 month Other peaks (%)” value was found to be 1.6%; the “1 month Parent peak (%)” value was 98.4%. Also, in data set [2], the “Initial Other peaks (%)” value turned out to be 1.6%, the “Initial Parent peak (%)” value came out at 98.4% and the “change of purity (%)” value came out at 0%. In addition, the IC50 in data set [1] (setting [3]) was 0.089 nM. Besides, the “Selectivity Index (L5178Y/CAPE)” value in data set [1] was 1.18 × 10^5.

In the data set on L5178Y lymphoma (Mus musculus, 72 h), `CO[C@@H]1[C@H](OC(=O)/C=C/c2ccc(OCCCCO)cc2)CC[C@]2(CO2)[C@H]1[C@@]1(C)O[C@@H]1CC=C(C)C` [Example 21, O-(4-(4-hydroxybutoxy)cinnamoyl)fumagillol] registered an IC50 of 25800 nM. Further, in the data set “Solubility test”, the “The amount of solvent … demineralized water” value was found to be 150 mL; the “The amount of solvent … (ml), ethanol” value stood at 97 mL; the “The amount of solvent to dissolve 1 g … methanol” value turned out to be 70 mL. Besides, in data set [2], the “change of purity (in words)” value was “hardly showed a change of purity”; the “chemical stability compared to known compounds” value is “more excellent chemical stability than TNP-470, CKD-732 and CKD-731”; the “1 month Other peaks (%)” value is on record as 1.1%; the “1 month Parent peak (%)” value is 98.9%. Moreover, in data set [2], the “Initial Other peaks (%)” value was determined as 1.0%, the “Initial Parent peak (%)” value is listed as 99.0% and the “change of purity (%)” value was 0.1%. Besides, the 50% inhibitory concentration (IC50) in data set [1] (setting [3]) was 0.029 nM. Besides, the “Selectivity Index (L5178Y/CAPE)” value in data set [1] is recorded as 8.90 × 10^5.

Take `CO[C@@H]1[C@H](OC(=O)/C=C/c2ccc(OCCCCO)c(C)c2)CC[C@]2(CO2)[C@H]1[C@@]1(C)O[C@@H]1CC=C(C)C` [Example 22, O-(3-methyl-4-(4-hydroxybutoxy)cinnamoyl)fumagillol]: the IC50 came to 32500 nM in the data set on L5178Y lymphoma (Mus musculus, 72 h) and 0.048 nM in data set [1] (setting [3]). For the same compound, the “Selectivity Index (L5178Y/CAPE)” value in data set [1] is on record as 6.76 × 10^5.

`COc1cc(/C=C/C(=O)O[C@@H]2CC[C@]3(CO3)[C@@H]([C@@]3(C)O[C@@H]3CC=C(C)C)[C@@H]2OC)cc(OC)c1OCCOCCO` [Example 13, O-(3,5-dimethoxy-4-(2-hydroxyethoxyethoxy)cinnamoyl)fumagillol]: the IC50 with L5178Y lymphoma (Mus musculus, 72 h) was determined as 34600 nM; in data set [1] (setting [3]), 0.17 nM. The “Selectivity Index (L5178Y/CAPE)” value in data set [1] is 2.03 × 10^5.

On to `COc1cc(/C=C/C(=O)O[C@@H]2CC[C@]3(CO3)[C@@H]([C@@]3(C)O[C@@H]3CC=C(C)C)[C@@H]2OC)ccc1Oc1ccc(CO)cc1` [Example 10, O-(4-(4-hydroxymethylphenoxy)-3-methoxycinnamoyl)fumagillol], for which the IC50 in the data set on L5178Y lymphoma (Mus musculus, 72 h) was 42500 nM; in data set [1] (setting [3]), 0.711 nM. Also, the “Selectivity Index (L5178Y/CAPE)” value in data set [1] is recorded as 6.00 × 10^4.

For the compound `CO[C@@H]1[C@H](OC(=O)/C=C/c2ccc(OCCCO)c(C#N)c2)CC[C@]2(CO2)[C@H]1[C@@]1(C)O[C@@H]1CC=C(C)C` [Example 20, O-(3-cyano-4-(3-hydroxypropoxy)cinnamoyl)fumagillol], the IC50 with L5178Y lymphoma (Mus musculus, 72 h) came to 20500 nM; in data set [1] (setting [3]), 0.046 nM. Besides, the “Selectivity Index (L5178Y/CAPE)” value in data set [1] was 4.45 × 10^5.
